Article PMC9785280, “Synthesis, Antiproliferative Evaluation and QSAR Analysis of Novel Halogen- and Amidino-Substituted Benzothiazoles and Benzimidazoles” (International Journal of Molecular Sciences, 2022)

Columns and labels:
[1] = test system: MDCK1 (Madin–Darby canine kidney) cells; assay: MTT antiproliferative assay, non-tumor MDCK1 cells; type: cell-based; conditions: Canis lupus familiaris, MDCK1, 72 h, mean ± SD of three independent experiments, normal cells
Procedure: (§1) The growth inhibition activity was assessed according to the slightly modified procedure performed at the National Cancer Institute, Developmental Therapeutics Program.
(§2) Examined compounds were dissolved in DMSO (1 × 10^−2 M). The experiments were carried out on seven human tumor cell lines and two normal cell lines. The following cell lines were used: HeLa (human cervical adenocarcinoma; purchased from ATCC), CaCo-2 (human colorectal adenocarcinoma), HuT78 (T-cell lymphoma), THP-1 (acute monocytic leukemia), SW620 (colorectal adenocarcinoma, metastatic), MDA-MB-231 (human breast adenocarcinoma), HL60 (promyelocytic leukemia cell line), foreskin fibroblast cells (BJ) and MDCK1 (Madine–Darby canine kidney fibroblast like cells). MDCK1 cells were used between 24 and 26 passages.
(§3) Adherent cells were cultured in the Dulbecco’s modified Eagle medium—DMEM (Gibco, EU) supplemented with 10 % heat-inactivated fetal bovine serum (FBS, Gibco, EU), 2 mM glutamine, and 100 U/0.1 mg penicillin/streptomycin. Cells on suspension were cultured in RPMI 1640 (Gibco, EU) medium supplemented with 10 % FBS (Gibco, EU), 2 mM glutamine, 1 mM sodium pyruvate, 10 mM HEPES. Cells were grown in humidified atmosphere under the conditions of 37 °C/5% of CO2 gas in the CO2 incubator (IGO 150 CELLlife^TM, JOUAN, Thermo Fisher Scientific, Waltham, MA, USA). A erythrosin B (Sigma-Aldrich, St. Louis, MO, USA) dye exclusion method was used to assess cell viability before plating.
(§4) Adherent cells (HeLa, CaCo-2, MCF-7 and MDCK-1) were plated in 96-well flat bottom plates (Greiner, Frickenhausen, Austria) at a concentration of 2 × 10^4 cells/mL. Suspension cells (THP-1 and HuT78) were plated in 96-well microtiter plates (Sarstead, Newton, USA) at a concentration of 1 × 10^5 cells/mL. Twenty-four hours later, cells were treated with test agents in […] 10-fold dilutions ([…] to 10^−4 M) and incubated for further 72 h. Working dilutions were freshly prepared on the day of testing. The solvent was also tested for eventual inhibitory activity by adjusting its concentration to be the same as in working concentrations. After 72 h of incubation, the cell growth rate was evaluated by performing the MTT assay, which detects dehydrogenase activity in viable cells. For this purpose, upon completion of the incubation period, growth medium was discarded and 50 μL of MTT was added to each well at a concentration of 5 mg/mL. After four hours of incubation at 37 °C, water insoluble MTT-formazan crystals were dissolved in 150 μL of dimethyl-sulfoxide (DMSO) for adherent cells, and in 10 % SDS with 0.01 M/L HCl for cells grown in suspension. The absorbance (OD, optical density) was measured on a microplate reader (iMark, BIO RAD, Hercules, CA, USA) at 595 nm.
(§5) Percent of life cells was calculated as follows: % = OD (sample)–OD (background)/OD (control)–OD (background) × 100.
(§6) Optical density (OD) of background for adherent cells is the OD of MTT solution and DMSO; OD (background) for suspension cells is OD of the culture medium with MTT and 10% SDS with 0.01 M/L HCl; OD (control) is the OD of the cells growth without tested compounds.
(§7) Calculation of GI50 value curves and QC analysis is performed by using the Excel tools and GraphPadPrism software (La Jolla, CA), v. 5.03. Briefly, individual concentration effect curves are generated by plotting the logarithm of the concentration of tested compounds(X) vs. corresponding percent inhibition values (Y) using least squares fit. The best fit GI50 values are calculated using Log (inhibitor) versus normalized response—Variable slope equation, where Y Ľ 100/(1 ţ 10 ((LogIC50 _ X) * HillSlope)). QC criteria parameters (Z0, S:B, R2, HillSlope) were checked for every GI50 curve.

human fibroblasts (BJ) = assay: MTT antiproliferative assay, normal BJ fibroblasts; type: cell-based; conditions: Homo sapiens, Fibroblast, 72 h, MTT, mean ± SD of three independent experiments; normal cells
Procedure: as §1, §2, §3, §4, §5, §6, §7

[2] = test system: HeLa (cervical adenocarcinoma) cells; assay: MTT antiproliferative assay, HeLa; type: cell-based; conditions: Homo sapiens, 72 h, mean ± SD of three independent experiments
Procedure: as §1, §2, §3, §4, §5, §6, §7

[3] = test system: CaCo-2 (colon adenocarcinoma) cells; assay: MTT antiproliferative assay, CaCo-2; type: cell-based, human; conditions: Homo sapiens, Caco-2; 72 h, MTT, mean ± SD of three independent experiments
Procedure: as §1, §2, §3, §4, §5, §6
as §7, with “The best fit GI50 values are calculated using Log (inhibitor) versus normalized response—Variable slope equation, where Y Ľ 100/(1 ţ 10 ((LogIC50 _ X) * HillSlope)).” left out

[4] = test system: HuT78 (T-cell lymphoma) cells; assay: MTT antiproliferative assay, HuT78; type: cell-based, human; conditions: for IC50: Homo sapiens, HuT78, 72 h, 72 h, MTT, mean ± SD of three independent experiments; for SI (BJ) HuT78: SI = IC50 BJ / IC50 HuT78; for SI (MDCK) HuT78: SI = IC50 MDCK1 / IC50 HuT78
Procedure: as §1, §2, §3, §4, §5, §6, §7

Row | Compound | IC50 [1] | IC50 (human fibroblasts (BJ)) | IC50 [2] | IC50 [3] | IC50 [4] | SI (BJ) HuT78 [4] | SI (MDCK) HuT78 [4] | melting point
1 | Fc1cc(-c2nc3ccccc3s2)ccc1OCc1c[nH]nn1 [23b, 2-(3-Fluoro-4-((1H-1,2,3-triazol-4-yl)methoxy)phenyl)benzothiazole] | 27.4 ± 4.2 µM | 40.5 ± 17.2 µM | 34.9 ± 14.8 µM | 56 ± 14.6 µM | 17.1 ± 7.7 µM | 2.34 | 1.6 | 185 to 189 °C
2 | COc1cc(-c2nc3ccccc3s2)ccc1OCc1c[nH]nn1 [23c, 2-(3-Methoxy-4-((1H-1,2,3-triazol-4-yl)methoxy)phenyl)benzothiazole] | 29.5 ± 7.2 µM | > 100 µM | 45.7 ± 16.3 µM | 96.4 ± 13.3 µM | 20 ± 8.7 µM | 5.0 | – | 177 to 180 °C
3 | Clc1ccc2nc(-c3ccc(OCc4cn(Cc5ccccc5)nn4)cc3)sc2c1 [24a, 6-Chloro-2-(4-((1-benzyl-1H-1,2,3-triazol-4-yl)methoxy)phenyl)benzothiazole] | 11.4 ± 14.5 µM | > 100 µM | > 100 µM | > 100 µM | > 100 µM | – | – | 201 to 205 °C
4 | Fc1cc(-c2nc3ccc(Cl)cc3s2)ccc1OCc1cn(Cc2ccccc2)nn1 [24b, 6-Chloro-2-(3-fluoro-4-((1-benzyl-1H-1,2,3-triazol-4-yl)methoxy)phenyl)benzothiazole] | 8.8 ± 8.3 µM | > 100 µM | > 100 µM | > 100 µM | > 100 µM | – | – | 181 to 186 °C
5 | COc1cc(-c2nc3ccc(Cl)cc3s2)ccc1OCc1cn(Cc2ccccc2)nn1 [24c, 6-Chloro-2-(3-methoxy-4-((1-benzyl-1H-1,2,3-triazol-4-yl)methoxy)phenyl)benzothiazole] | 41.1 ± 17.2 µM | > 100 µM | 82.8 ± 32.3 µM | > 100 µM | 49.6 ± 38 µM | 2.0 | – | 190 to 193 °C
6 | Fc1ccc2nc(-c3ccc(OCc4cn(Cc5ccccc5)nn4)cc3)sc2c1 [25a, 6-Fluoro-2-(4-((1-benzyl-1H-1,2,3-triazol-4-yl)methoxy)phenyl)benzothiazole] | 8.2 ± 5.8 µM | 10 ± 0.01 µM | > 100 µM | > 100 µM | > 100 µM | – | – | 176 to 180 °C
7 | Fc1ccc2nc(-c3ccc(OCc4cn(Cc5ccccc5)nn4)c(F)c3)sc2c1 [25b, 6-Fluoro-2-(3-fluoro-4-((1-benzyl-1H-1,2,3-triazol-4-yl)methoxy)phenyl)benzothiazole] | 51.3 ± 4.6 µM | > 100 µM | > 100 µM | > 100 µM | 19.7 ± 10.6 µM | 5.07 | 2.6 | 205 to 208 °C
8 | COc1cc(-c2nc3ccc(F)cc3s2)ccc1OCc1cn(Cc2ccccc2)nn1 [25c, 6-Fluoro-2-(3-methoxy-4-((1-benzyl-1H-1,2,3-triazol-4-yl)methoxy)phenyl)benzothiazole] | 22.8 ± 4.9 µM | > 100 µM | > 100 µM | 77.6 ± 43.3 µM | > 100 µM | – | – | 180 to 183 °C
9 | c1ccc(Cn2cc(COc3ccc(-c4nc5ccccc5s4)cc3)nn2)cc1 [26a, 2-(4-((1-Benzyl-1H-1,2,3-triazol-4-yl)methoxy)phenyl)benzothiazole] | 36.7 ± 18 µM | > 100 µM | > 100 µM | > 100 µM | > 100 µM | – | – | 210 to 214 °C
10 | Fc1cc(-c2nc3ccccc3s2)ccc1OCc1cn(Cc2ccccc2)nn1 [26b, 2-(3-Fluoro-4-((1-benzyl-1H-1,2,3-triazol-4-yl)methoxy)phenyl)benzothiazole] | 64.8 ± 38.5 µM | > 100 µM | > 100 µM | > 100 µM | > 100 µM | – | – | 198 to 201 °C
